Assay results reported in PubChem BioAssay (NCI).
Where “and” joins values, the source holds several entries; their conditions need not be identical. Equal entries are not always repeated.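 The compound was tested at five concentrations on cells cultured in 96-well plates, with a 48-hour exposure period. At the GI50, growth is halved. At the TGI there is no net growth.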

How the values were obtained:
Assay in all cases: DTP human tumour cell line panel, 48 h
[1] = system: HS 578T breast
[2] = system: A498 renal
[3] = system: IGROV1 ovarian
[4] = system: HL-60(TB) leukemia
[5] = system: UO-31 renal
[6] = system: OVCAR-3 ovarian
[7] = system: CCRF-CEM leukemia
[8] = system: HCC-2998 colon
[9] = system: HCT-15 colon
[10] = system: PC-3 prostate

CC(=O)Oc1cc2c(OC(C)=O)c(-c3c(C)cc4c(C(C)C)c(OC(C)=O)c(OC(C)=O)cc4c3OC(C)=O)c(C)cc2c(C(C)C)c1OC(C)=O
GI50 [1]: 18.7 µM and 20.1 µM and 8.85 µM
TGI [1]: 49.8 µM and 55.2 µM and 21.6 µM
GI50 [2]: 4.91 µM and 4.51 µM and 11.5 µM
TGI [2]: 10 µM and 11.7 µM and 37.3 µM
GI50 [3]: 16.2 µM and 3.27 µM and 25.8 µM
TGI [3]: 33.9 µM and 9.86 µM and 57.5 µM
GI50 [4]: 13.1 µM and 3.07 µM and 4.8 µM
TGI [4]: 33.2 µM and 9.99 µM and 16.2 µM
GI50 [5]: 5.73 µM and 5.67 µM and 11.8 µM
TGI [5]: 13.3 µM and 11.9 µM and 33.8 µM
GI50 [6]: 4.6 µM and 6.15 µM and 8.52 µM
TGI [6]: 13.1 µM and 11.5 µM and 21 µM
GI50 [7]: 0.707 µM and 5.41 µM and 5.98 µM
TGI [7]: 4.04 µM and 15.6 µM and 20.7 µM
GI50 [8]: 4.23 µM and 5.12 µM and 18.4 µM
TGI [8]: 8.3 µM and 9.51 µM and 34.3 µM
GI50 [9]: 4.94 µM and 5.21 µM and 7.97 µM
TGI [9]: 9.98 µM and 10.5 µM and 18.2 µM
GI50 [10]: 5.48 µM and 5.87 µM and 9.87 µM
TGI [10]: 10.9 µM and 12.1 µM and 23.2 µM

O=C(CCC(C(=O)c1ccccc1)c1ccccc1)c1ccccc1 (stereo unspecified)
GI50 [1]: 11.8 µM
TGI [1]: > 100 µM
GI50 [2]: 1.44 µM
TGI [2]: 58.1 µM
GI50 [3]: 32 µM
TGI [3]: > 100 µM
GI50 [4]: 4.72 µM
TGI [4]: 55.9 µM
GI50 [5]: 7.28 µM
TGI [5]: > 100 µM
GI50 [6]: 5.78 µM
TGI [6]: > 100 µM
GI50 [7]: 3.97 µM
TGI [7]: 77.2 µM
GI50 [8]: 29.7 µM
TGI [8]: > 100 µM
GI50 [9]: 4.92 µM
TGI [9]: > 100 µM
GI50 [10]: 7.94 µM
TGI [10]: > 100 µM

Cc1cc(O)cc(C)c1/C=C/c1cncc(-c2nn[nH]n2)c1
GI50 [1]: > 25 µM
TGI [1]: > 25 µM
GI50 [2]: > 25 µM
TGI [2]: > 25 µM
GI50 [3]: > 25 µM
TGI [3]: > 25 µM
GI50 [4]: > 25 µM
TGI [4]: > 25 µM
GI50 [5]: > 25 µM
TGI [5]: > 25 µM
GI50 [6]: > 25 µM
TGI [6]: > 25 µM
GI50 [7]: > 25 µM
TGI [7]: > 25 µM
GI50 [8]: > 25 µM
TGI [8]: > 25 µM
GI50 [9]: > 25 µM
TGI [9]: > 25 µM
GI50 [10]: > 25 µM
TGI [10]: > 25 µM

C/C(=C\COc1c2c(cc3c1CCO3)OC1(C=C2)OC(CC/C(C)=C/COc2c3ccoc3cc3oc(=O)ccc23)C(C)(C)O1)CCC(O)C(C)(C)O (stereo unspecified)
GI50 [1]: 27.3 µM
TGI [1]: > 100 µM
GI50 [2]: 32.8 µM
TGI [2]: > 100 µM
GI50 [4]: 3.61 µM
TGI [4]: 20.9 µM
GI50 [5]: 25.7 µM
TGI [5]: > 100 µM
GI50 [6]: 15 µM
TGI [6]: > 100 µM
GI50 [7]: 8.78 µM
TGI [7]: > 100 µM
GI50 [8]: 89.6 µM
TGI [8]: > 100 µM
GI50 [9]: 85 µM
TGI [9]: > 100 µM
GI50 [10]: 6.56 µM
TGI [10]: > 100 µM

O=C(NO)c1ccc(Cn2c(=O)n(-c3ccccc3F)c(=O)c3ccccc32)cc1
GI50 [1]: 1.9 µM
TGI [1]: 11.9 µM
GI50 [2]: 1.02 µM
TGI [2]: 2.57 µM
GI50 [4]: 3.48 µM
TGI [4]: > 100 µM
GI50 [5]: 1.83 µM
TGI [5]: 4.75 µM
GI50 [6]: 2.15 µM
TGI [6]: 6.41 µM
GI50 [7]: 2.07 µM
TGI [7]: > 100 µM
GI50 [8]: 1.42 µM
TGI [8]: 2.96 µM
GI50 [9]: 1.92 µM
TGI [9]: 4.42 µM
GI50 [10]: 1.7 µM
TGI [10]: 4.31 µM

COc1ccc2nc3ccccc3c(NCCCN(C)CCCl)c2c1
TGI [1]: 3.85 µM
TGI [2]: 2.42 µM
TGI [3]: 2.21 µM
TGI [5]: 2.67 µM
TGI [6]: 2.07 µM
TGI [7]: 1.58 µM
TGI [8]: 1.69 µM
TGI [9]: 8.29 µM
TGI [10]: 1.6 µM

S=c1nc(Cl)cc2[nH]c(Cl)cn12
TGI [1]: 6.34 µM
TGI [2]: 56.9 µM
TGI [3]: 30.2 µM
TGI [5]: > 100 µM
TGI [6]: 6.49 µM
TGI [7]: 6.04 µM
TGI [8]: > 100 µM
TGI [9]: > 100 µM
TGI [10]: > 100 µM

O=C(NCc1ccco1)c1ccc(NC2=C(Cl)C(=O)N(Cc3ccccc3)C2=O)cc1
GI50 [1]: 43.3 µM
TGI [1]: > 100 µM
GI50 [2]: 29.6 µM
TGI [2]: 62.5 µM
GI50 [3]: 2.12 µM
TGI [3]: 35.2 µM
GI50 [4]: 17.4 µM
TGI [4]: 33.8 µM
GI50 [5]: 22.2 µM
TGI [5]: 57.7 µM
GI50 [6]: 16.7 µM
TGI [6]: 31.3 µM
GI50 [8]: 22.9 µM
TGI [8]: 37.4 µM
GI50 [9]: 17.7 µM
TGI [9]: 74.4 µM
GI50 [10]: 17.5 µM
TGI [10]: 32.5 µM

CCCCN(CCCC)CCCn1c(=O)c2c3ccccc3n(C)c2n2nnc(-c3ccccc3)c12
GI50 [1]: 39.9 µM
TGI [1]: > 100 µM
GI50 [2]: 42.7 µM
TGI [2]: > 100 µM
GI50 [4]: 2.54 µM
TGI [4]: 41.7 µM
GI50 [5]: 6.06 µM
TGI [5]: 46.8 µM
GI50 [6]: 48.6 µM
TGI [6]: > 100 µM
GI50 [7]: 4.22 µM
TGI [7]: 92 µM
GI50 [8]: 20.3 µM
TGI [8]: > 100 µM
GI50 [9]: 20.7 µM
TGI [9]: > 100 µM
GI50 [10]: 18.2 µM
TGI [10]: 47.4 µM

COc1cc(OC)c(NC(=O)c2cc3ccccc3cc2O)cc1Cl
GI50 [1]: 2.72 µM
TGI [1]: 8.95 µM
GI50 [2]: 2.15 µM
TGI [2]: 5.57 µM
GI50 [3]: 2.03 µM
TGI [3]: 11.2 µM
GI50 [4]: 1.91 µM
TGI [4]: 7.99 µM
GI50 [5]: 1.71 µM
TGI [5]: 8.33 µM
GI50 [6]: 2.02 µM
TGI [6]: 4.74 µM
GI50 [8]: 3.73 µM
TGI [8]: 13.8 µM
GI50 [9]: 3.38 µM
TGI [9]: 19.4 µM
GI50 [10]: 2.13 µM
TGI [10]: 8.02 µM

CCCCCCCCCCCCOC1C(C(CC(=O)N2CCN(c3cccc(C(F)(F)F)c3)CC2)NS(=O)(=O)c2cc(Cl)cc(Cl)c2)OC2OC(C)(C)OC21 (stereo unspecified)
GI50 [1]: > 100 µM
TGI [1]: > 100 µM
GI50 [2]: > 100 µM
TGI [2]: > 100 µM
GI50 [3]: > 100 µM
TGI [3]: > 100 µM
GI50 [4]: > 100 µM
TGI [4]: > 100 µM
GI50 [5]: > 100 µM
TGI [5]: > 100 µM
GI50 [6]: > 100 µM
TGI [6]: > 100 µM
GI50 [8]: > 100 µM
TGI [8]: > 100 µM
GI50 [9]: > 100 µM
TGI [9]: > 100 µM
GI50 [10]: > 100 µM
TGI [10]: > 100 µM
